What was measured:
[1] = tested on: HEK293 clonal cell line overexpressing APOL1 G1; test: APOL1 G1 HEK293 cell rescue assay (Example B3); assay type: cell-based; conditions: Homo sapiens, HEK293, HEK293 clonal line overexpressing APOL1 G1; geometric mean of at least 2 runs; † = single run; ¥ = concentration at 50% rescue estimated (no sigmoidal curve)
Outline: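 Rescue of cell death caused by APOL1 G1 overexpression was measured in a clonal HEK293 line. Compounds were tested in duplicate on one plate, and EC50s were geometric means across at least two runs on different days. Some values are estimated 50%-rescue concentrations where curve fitting failed.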

[2] = tested on: HEK293 cells overexpressing APOL1 G2; test: APOL1 G2 HEK293 cell rescue assay (reversal of cell death caused by overexpression of APOL1); assay type: cell-based; conditions: Homo sapiens, HEK293, HEK293 overexpressing APOL1 G2; geometric mean of at least 2 assay runs; † = single assay run
Outline: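 Each compound tested in duplicate wells on one plate per run, with values usually the geometric mean across at least two runs on different days, occasionally from one run only. Read-out: concentration giving half-maximal rescue of APOL1 G2 overexpression-induced death of HEK293 cells.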

Compound `C[C@]1(O)C[C@@H](n2ccc3cc(OCCN4CCC5(CC4)C(=O)Nc4ccc(Cl)cc45)cnc32)C1` [Compound 349, 5-chloro-1′-[2-({1-[(cis)-3-hydroxy-3-methylcyclobutyl]-1H-pyrrolo[2,3-b]pyridin-5-yl}oxy)ethyl]-1,2-dihydrospiro[indole-3,4′-piperidin]-2-one] has an EC50 [1] of 73.5 nM and an EC50 [2] of 25.4 nM.
For `C[C@]1(O)C[C@@H](n2ccc3cc(OCCN4CCC5(CC4)C(=O)Nc4ccc(C(F)F)cc45)cnc32)C1` [Compound 350, 5-(difluoromethyl)-1′-[2-({1-[(cis)-3-hydroxy-3-methylcyclobutyl]-1H-pyrrolo[2,3-b]pyridin-5-yl}oxy)ethyl]-1,2-dihydrospiro[indole-3,4′-piperidin]-2-one], the EC50 [1] was 43.9 nM and the EC50 [2] was 18.8 nM.
In the case of `C[C@]1(O)C[C@@H](n2cnc3cc(OCCN4CCC5(CC4)C(=O)Nc4ccc(Cl)cc45)cc(C(F)(F)F)c32)C1` [Compound 352, 5-chloro-1′-[2-({1-[(cis)-3-hydroxy-3-methylcyclobutyl]-7-(trifluoromethyl)-1H-1,3-benzodiazol-5-yl}oxy)ethyl]-1,2-dihydrospiro[indole-3,4′-piperidin]-2-one], the EC50 [1] is reported as 9.95 nM and the EC50 [2] is reported as 8.6 nM.
In the case of `C[C@]1(O)C[C@@H](N2C(=O)NCc3cc(OCCN4CCC5(CC4)C(=O)Nc4ccc(Cl)cc45)cnc32)C1` [Compound 356, 5-chloro-1′-[2-({2-oxo-1-[(cis)-3-hydroxy-3-methylcyclobutyl]-1H,2H,3H,4H-pyrido[2,3-d]pyrimidin-6-yl}oxy)ethyl]-1,2-dihydrospiro[indole-3,4′-piperidin]-2-one], the EC50 [1] is reported as 162 nM and the EC50 [2] is reported as 50.6 nM.
With `CC(C)(O)c1ncc(OCCN2CCC3(CC2)C(=O)Nc2ccc(Cl)cc23)cc1C(F)(F)F` [Compound 371, 5-chloro-1′-(2-{[6-(2-hydroxypropan-2-yl)-5-(trifluoromethyl)pyridin-3-yl]oxy}ethyl)-1,2-dihydrospiro[indole-3,4′-piperidin]-2-one] the EC50 [1] was 28.8 nM and the EC50 [2] was 17.2 nM.
`C[C@]1(O)C[C@@H](n2c(=O)oc3cc(OCCN4CCC5(CC4)C(=O)Nc4ccc(Cl)cc45)cnc32)C1` [Compound 394, 5-chloro-1′-[2-({2-oxo-3-[(cis)-3-hydroxy-3-methylcyclobutyl]-2H,3H-[1,3]oxazolo[4,5-b]pyridin-6-yl}oxy)ethyl]-1,2-dihydrospiro[indole-3,4′-piperidin]-2-one] showed an EC50 [1] of 77.7 nM and an EC50 [2] of 24 nM.
`O=C1Nc2ccc(Cl)cc2C12CCN(CCOc1cnc(N3CC4(CC(O)C4)C3)nc1)CC2` [Compound 396, 5-chloro-1′-{2-[(2-{6-hydroxy-2-azaspiro[3.3]heptan-2-yl}pyrimidin-5-yl)oxy]ethyl}-1,2-dihydrospiro[indole-3,4′-piperidin]-2-one] gave an EC50 [1] of 85 nM and an EC50 [2] of 40.5 nM.
`CCC1(O)CN(c2ncc(OCCN3CCC4(CC3)C(=O)Nc3ccc(Cl)cc34)cn2)C1` [Compound 397, 5-chloro-1′-(2-{[2-(3-ethyl-3-hydroxyazetidin-1-yl)pyrinlidin-5-yl]oxy}ethyl)-1,2-dihydrospiro[indole-3,4′-piperidin]-2-one] was tested, and the EC50 [1] was 105 nM and the EC50 [2] was 45.9 nM.
Compound `CC(CO)(c1ncc(OCCN2CCC3(CC2)C(=O)Nc2ccc(Cl)cc23)cc1C(F)(F)F)S(C)(=O)=O` (centres unmarked) [Compound 401, 5-chloro-1′-(2-{[6-(1-hydroxy-2-methanesulfonylpropan-2-yl)-5-(trifluoromethyl)pyridin-3-yl]oxy}ethyl)-1,2-dihydrospiro[indole-3,4′-piperidin]-2-one] has an EC50 [1] of 68.2 nM and an EC50 [2] of 36.7 nM.
With `C[C@]1(O)C[C@@H](n2ccc3cc(OCCN4CCC5(CC4)C(=O)Nc4ccc(C#N)cc45)cnc32)C1` [Compound 410, 2-oxo-1′-[2-({1-[(cis)-3-hydroxy-3-methylcyclobutyl]-1H-pyrrolo[2,3-b]pyridin-5-yl}oxy)ethyl]-1,2-dihydrospiro[indole-3,4′-piperidine]-5-carbonitrile] the EC50 [1] was 93.3 nM and the EC50 [2] was 64.1 nM.
